Reference: patent US6900202B2, “Di-substituted imineheterocyclic compounds” (priority 2000, dated 2005)

Assays:
[1] = target: T1, α4β2 subtype of nicotinic acetylcholine receptors (Rattus norvegicus, UniProt P09483+P12390); assay: Binding assay at α4β2 subtype of nicotinic acetylcholine receptors ([3H]-cytisine, rat brain membrane)
T1 construct: examined using rat brain membrane obtained from whole homogenized brain; from tissue; host or cells: whole brain membranes of Fischer-344 male rats
Text: (§1) The methods for evaluating the binding capabilities of the compounds against nicotinic acetylcholine receptors are different by subtypes of receptors. The binding capabilities of the compounds at α4β2 nicotinic acetylcholine receptors are examined using rat brain membrane obtained from whole homogenized brain, and determining the inhibiting rate of the compounds against [^3H]-cytisine binding to said brain membrane. Furthermore, the binding capabilities of the compounds at α1β1γδ nicotinic acetylcholine receptors are examined using homogenized rat muscle, and determining the inhibiting rate of the compounds against [^3H]-α-bungarotoxin binding to said muscle membrane.
Binding Assays at α4β2 Subtype of Nicotinic Acetylcholine Receptors
The affinity of the compounds of the present invention to α4β2 subunit of nicotinic acetylcholine receptors was performed by the following method, which was modified method described by Pabreza L. A., Dhawan S. & Kellar K. J., Mol. Pharm., 39, 9-12 (1990), and by Anderson D. J. & Arneric S. P., Eur. J. Pharm., 253, 261-267 (1994).
(1) Preparation of Rat Brain Membrane Containing α4β2 subtype of Nicotinic Acetylcholine Receptors
Fischer-344 strain male rats (body weight: 200-240 g; 9 weeks old) obtained from Charles River Japan were used. Rats were housed in the breeding cage controlled of the room temperature at 23±1° C., and the humidity of 55±5% for 1 to 4 weeks. Rats (3 to 4 rats per a cage) were housed with lights on for 12 hours daily (from 7:00 to 19:00), and allowed free access to food and water.
Preparation of rat brain membrane containing α4β2 subtype of nicotinic acetylcholine receptors was performed as follow. That is, rat brains were isolated just after sacrificed by decapitation, washed with ice-cooled saline solution and then frozen at −80° C. with liquid nitrogen and stored till using. After thawing the frozen brain, the brain was homogenized in 10 volumes of buffer solution (50 mM of Tris-HCl, 120 mM of NaCl, 5 mM of KCl, 1 mM of MgCl2, 2mM of CaCl2; pH 7.4; 4° C.) using homogenizer (HG30, Hitachi Kohki Ltd.) for 30 seconds, and the homogenate were centrifuged under 1,000×G for 10 minutes at 4° C. The resulting supernatant was separated and the pellet was homogenized again with half volume of aforementioned prior buffer solution and centrifuged under the same conditions. Combined supernatant was further centrifuged under 40,000×G for 20 minutes at 4° C. The pellet was suspended in buffer solution and used for binding assays at receptors.
(2) Experiments of α4β2 Subtype of Nicotinic Acetylcholine Receptors Binding
Suspensions of membrane pellets containing 400-600 μg of protein were added to test tubes containing test compounds and [^3H]-cytisine (2 nM) in a final volume of 200 μl and incubated for 75 minutes in ice-cooled bath. The samples were isolated by vacuum filtration onto Whatman GF/B filters, which were prerinsed with 0.5% polyethylenimine just prior to sample filtration, using Brandel multi manifold cell harvester. The filters were rapidly washed with buffer solution (3×1 ml). The filters were counted in 3 ml of clearsol I (Nacalai Tesque Inc.).
The analyses of the experimental results were conducted by using the Accufit Competition Program (Beckman Ltd.).

[2] = target: T2, α1β1γδ subtype of nicotinic acetylcholine receptors (Rattus norvegicus, UniProt P18916+P25108+P25109+P25110); assay: biochemical; assay type: binding
T2 construct: The centrifugation at 100,000×G for 60 minutes at 4° C. yielded the rat muscle extract as supernatant
Text: as §1
Binding Assays at α1β1γδ Subtype of Nicotinic Acetylcholine Receptors
The affinity of the compounds of the present invention to α1β1γδ subtype of nicotinic acetylcholine receptors was measured by the following method, which was modified method described by Garcha H. S., Thomas P., Spivak C.
(1) Preparation of Rat Skeletal Muscles Containing α1β1γδ Subtype of Nicotinic Acetylcholine Receptors
The substantially same animals described in the Biological Experiment 1 were used.
The isolation of α1β1γδ subtype of nicotinic acetylcholine receptors was performed as follow. That is, rat posterior skeletal muscles were isolated just after sacrificed by decapitation, washed with ice-cooled saline solution and then frozen at −80° C. with liquid nitrogen and stored till using. After thawing the frozen muscles, tissue was homogenized (40% w/v) with buffer solution [2.5 mM of sodium phosphate buffer (pH:7.2), 90 mM of NaCl, 2 mM of KCl, 1 mM of EDTA, 2 mM of benzamidine, 0.1 mM of benzethonium chloride, 0.1 mM of PMSF, 0.01% of sodium azide] in Waring blender [Waring blender 34BL97; WARING PRODUCTS DIVISION DYNAMICS CORPORATION OF AMERICA) for 60 seconds. The homogenate were centrifuged under 20,000×G for 60 minutes at 4° C. The supernatant was separated and the resulting pellet was added to the same buffer (1.5 ml/g wet weight), and homogenized under the same conditions. Triton X100 (2% w/v) was added and the mixture was stirred for 3 hours at 4° C. The centrifugation at 100,000×G for 60 minutes at 4° C. yielded the rat muscle extract as supernatant. This was stored at 4° C. for up to 4 weeks, and used for binding assays at receptors.
(2) Experiments of α1β1γδ Subtype of Nicotinic Acetylcholine Receptors Binding
Receptors binding experiments were performed as follow. That is, the extract of rat muscle containing 600-900 μg of protein was added to test tubes containing test compounds and incubated for 15 minutes at 37° C. Then, to this mixture was added 1 nM of [^3H]-α-bungarotoxin (α-Bgt) and further incubated for 2 hours. The samples were isolated by vacuum filtration onto Whatman GF/B filters, which were prerinsed with 0.5% polyethylenimine just prior to sample filtration, using Brandel multi manifold cell harvester. The filters were rapidly rinsed with washing solution (10 mM of KH2PO4, 150 mM of NaCl, pH 7.2, room temperature) (5×1 ml). The filters were counted in 3 ml of clearsol I (Nacalai Tesque Inc.). The determination of nonspecific binding was incubated in the presence of 1 μM α-Bgt. […] In the receptor binding experiments, said buffer solution was added for adjusting the final concentration of BSA to be 0.05%.
The analyses of the experimental results were conducted by as described in the Biological Experiment 1.

T2 sequence (P25108 21-457): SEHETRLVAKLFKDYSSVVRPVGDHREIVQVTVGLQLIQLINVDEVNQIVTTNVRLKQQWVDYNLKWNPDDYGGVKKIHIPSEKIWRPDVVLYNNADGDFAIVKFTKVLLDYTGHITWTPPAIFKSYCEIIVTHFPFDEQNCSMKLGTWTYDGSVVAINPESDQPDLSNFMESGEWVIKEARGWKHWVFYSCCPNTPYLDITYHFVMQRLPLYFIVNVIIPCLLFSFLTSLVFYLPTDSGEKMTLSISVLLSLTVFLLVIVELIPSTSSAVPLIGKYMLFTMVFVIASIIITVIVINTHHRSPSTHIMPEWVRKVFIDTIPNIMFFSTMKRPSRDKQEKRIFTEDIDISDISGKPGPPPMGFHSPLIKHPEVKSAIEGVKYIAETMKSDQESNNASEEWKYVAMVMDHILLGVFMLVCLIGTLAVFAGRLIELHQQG
T2 sequence (P25109 24-501): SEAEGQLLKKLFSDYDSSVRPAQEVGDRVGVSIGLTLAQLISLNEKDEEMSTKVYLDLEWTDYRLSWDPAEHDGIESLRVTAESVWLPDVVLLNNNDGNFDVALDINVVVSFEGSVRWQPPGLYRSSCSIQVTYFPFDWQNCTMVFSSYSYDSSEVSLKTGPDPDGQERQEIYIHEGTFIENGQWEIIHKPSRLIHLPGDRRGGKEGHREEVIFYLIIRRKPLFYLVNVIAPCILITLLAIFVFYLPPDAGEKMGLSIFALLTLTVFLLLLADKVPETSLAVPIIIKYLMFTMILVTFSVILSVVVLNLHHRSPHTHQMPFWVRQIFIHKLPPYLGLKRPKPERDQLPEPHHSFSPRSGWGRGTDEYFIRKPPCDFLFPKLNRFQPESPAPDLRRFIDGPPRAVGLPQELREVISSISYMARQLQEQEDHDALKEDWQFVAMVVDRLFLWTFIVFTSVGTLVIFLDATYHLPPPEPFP
T2 sequence (P25110 22-517): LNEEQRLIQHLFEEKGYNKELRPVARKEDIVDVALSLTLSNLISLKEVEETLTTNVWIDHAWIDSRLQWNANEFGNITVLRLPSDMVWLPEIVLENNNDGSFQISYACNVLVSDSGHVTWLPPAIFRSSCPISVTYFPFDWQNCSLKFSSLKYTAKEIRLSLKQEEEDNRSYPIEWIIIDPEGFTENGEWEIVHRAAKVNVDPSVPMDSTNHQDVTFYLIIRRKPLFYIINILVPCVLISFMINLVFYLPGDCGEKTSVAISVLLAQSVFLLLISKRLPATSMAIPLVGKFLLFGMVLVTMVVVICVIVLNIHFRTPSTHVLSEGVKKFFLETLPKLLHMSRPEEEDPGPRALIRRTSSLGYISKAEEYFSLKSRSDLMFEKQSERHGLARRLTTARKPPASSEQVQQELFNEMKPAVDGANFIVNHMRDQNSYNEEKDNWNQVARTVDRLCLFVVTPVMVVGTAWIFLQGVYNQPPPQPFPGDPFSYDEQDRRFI
T1 sequence (P09483 31-630): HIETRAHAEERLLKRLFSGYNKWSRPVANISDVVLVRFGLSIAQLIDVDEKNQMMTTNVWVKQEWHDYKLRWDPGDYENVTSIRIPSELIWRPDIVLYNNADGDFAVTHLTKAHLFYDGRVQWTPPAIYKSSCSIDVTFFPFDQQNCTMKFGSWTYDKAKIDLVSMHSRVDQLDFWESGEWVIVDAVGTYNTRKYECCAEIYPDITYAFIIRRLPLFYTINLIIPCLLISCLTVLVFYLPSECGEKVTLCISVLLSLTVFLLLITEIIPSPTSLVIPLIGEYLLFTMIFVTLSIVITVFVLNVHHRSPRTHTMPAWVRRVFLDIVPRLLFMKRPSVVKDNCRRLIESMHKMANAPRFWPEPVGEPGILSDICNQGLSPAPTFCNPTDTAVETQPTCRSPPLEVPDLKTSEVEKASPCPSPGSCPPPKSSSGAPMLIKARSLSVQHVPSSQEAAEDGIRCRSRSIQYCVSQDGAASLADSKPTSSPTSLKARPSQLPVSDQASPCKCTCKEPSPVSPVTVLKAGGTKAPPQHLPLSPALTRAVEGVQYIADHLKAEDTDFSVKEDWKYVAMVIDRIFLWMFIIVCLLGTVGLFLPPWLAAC
T1 sequence (P12390 25-500): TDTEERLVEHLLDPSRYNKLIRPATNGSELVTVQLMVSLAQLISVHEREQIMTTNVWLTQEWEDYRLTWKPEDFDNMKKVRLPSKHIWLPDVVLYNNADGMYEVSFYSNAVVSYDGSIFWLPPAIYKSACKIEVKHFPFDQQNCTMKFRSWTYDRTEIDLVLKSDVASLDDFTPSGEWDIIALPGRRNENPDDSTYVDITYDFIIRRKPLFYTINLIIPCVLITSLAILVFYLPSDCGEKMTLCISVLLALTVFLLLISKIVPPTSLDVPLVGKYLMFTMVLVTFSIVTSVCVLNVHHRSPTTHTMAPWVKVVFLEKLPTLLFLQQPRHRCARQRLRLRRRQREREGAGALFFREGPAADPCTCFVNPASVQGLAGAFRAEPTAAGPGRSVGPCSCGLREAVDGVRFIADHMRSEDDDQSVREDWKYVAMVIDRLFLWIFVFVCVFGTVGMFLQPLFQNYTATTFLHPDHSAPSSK

Row | Structure (SMILES) | Ki [1] [nM] | Ki [2] [nM]
1 | Clc1ccc(C/N=C2\SCCN2Cc2ccc(Cl)nc2)cn1 [Compound 1, 3-(6-chloro-3-pyridyl)methyl-2-[(6-chloro-3-pyridyl)methyl]iminothiazolidine] | 16 | 420000
2 | Cn1ccn(Cc2ccc(Cl)nc2)c1=N [Compound 13, 1-(6-chloro-3-pyridyl)methyl-2-imino-3-methyl-2,3-dihydroimidazole] | 15 | 320000
3 | Clc1ccc(C/N=C2\OCCCN2Cc2ccc(Cl)nc2)cn1 [Compound 2, 3-(6-chloro-3-pyridyl)methyl-2-[(6-chloro-3-pyridyl)-methyl]imino-3,4,5,6-tetrahydro-2H-1,3-oxazine] | 22 | 
4 | Clc1ccc(C/N=c2\sccn2Cc2ccc(Cl)nc2)cn1 [Compound 8, 3-(6-chloro-3-pyridyl)methyl-2-[(6-chloro-3-pyridyl)methyl]imino-2,3-dihydrothiazole] | 42 | 840000
